In patent US7776833B2, “Use of cyclic bioisosters of purine system derivatives for treating diseases produced by disorders of niterergic and dopaminergic systems” (priority 2003, dated 2010):

What was measured:
Format in all cases: in vivo, Wistar rats
[1] = system: nitric oxide synthase (NOS); test: Nitric oxide synthase activity in brain regions, radiometric [3H]L-citrulline method; conditions: 3 x 20 mg/kg intramuscularly
Procedure: (§1) After the above experiments the rat brains were isolated and immediately placed in the ice cold 0.9% solution of sodium chloride. After cooling the following structures were isolated from the brain: cerebral cortex, hippocampus, mesencephalon, striatum, brainstem, hypothalamus and cerebellum. The isolated tissue was homogenized in a Potter S homogenizer for 3 minutes at 1500 rpm in 4-5 volumes of 20 mM HEPES (pH 7.5) at 4° C. The supernatants were centrifuged for 30 minutes at 11000 g at 4° C., and aliquots of the obtained supernatants were taken for determining nitrates and nitrites (NOx-), while the remaining part was mixed with cooled 20 mM of HEPES (pH 7.5), containing 0.5 mM ethylenediamine tetraacetate (EDTA), 1 mM dithiotreitol (DDT), 1 mM phenylmethylsulfonyl fluoride (PMSF), aprotinine and leupeptine at a concentration of 5 μg/ml, this mixture being used for determining nitric oxide synthase (NOS) activity.
The activity of nitric oxide synthase (NOS) was determined using a radiometric method by the rate of L-citrulline accumulation in a reaction of [^3H] L-arginine oxidation catalyzed by NOS (Bredt M., Snyder S. Nitric oxide mediates glutamate-linked enhancement of cGMP levels in the cerebellum. Proc. Natl. Acad. Sci., USA, 1989, V.86, p.9030-9033). The formation of L-citrulline in this reaction is equivalent to a biosynthesis of nitric oxide.
The reaction was initiated by adding brain supernatant in the reaction medium containing 2 μCi/ml of [3H] L-arginine, 20 mM HEPES (pH 7.4), 0.2 mM CaCl2, 5 μM FAD, 5 μM FMN, 1 mM NADPH, 50 μM of BH4. After 15-60 minutes of incubation at 37° C. a suspension of Dowex 50WX8-400 (Na^+-form), which sorbs unreacted [^3H]L-arginine, but not [^3H] L-citrulline was added to the samples. After the sorption the radioactivity of the samples was determined on a scintillation counter SL-4000 (“Intertechnique”). The activity of Ca^2+-dependent and Ca^2+-independent NOS isoforms was determined by the difference of rates of [^3H]L-citrulline formation in three parallel samples containing 2 mM EDTA (Ca^2+ chelator), 2 mM EDTA+2 mM L-NAME (inhibitor all NOS isoforms) or without inhibitors. The enzyme activity was expressed in rnol [^3H]L-citrulline acumulated per 1 minute on 1 mg of supernatant protein.
(§2) The content of protein in the samples was determined by the Bradford method (Bradford M. M. A rapid and sensitive method for quantitation of microgram quantities of protein using the principle of protein binding . Anal. Biochem., 1976, V. 72, p. 248-254) using Coumassi dye. The statistical analysis was performed using methods appropriate for respective experiments. The data are expressed as mean±standard error of mean.

[2] = system: physical dependence from morphine (morphine abstinence); test: Morphine abstinence syndrome, signs scored in the open field test; conditions: Morphine − (morphine + compound); compound 3 x 20 mg/kg intramuscularly; one value for the three compounds
Procedure: Thirty six hours after the last injection selected motor and autonomice parameters which are specific symptoms of abstinence were monitored in the <<open field>> test (an arena with a diameter of 120 cm and wall height of 40 cm).
Med., 2002, V.29, p.1-6.). The observable signs were recorded quantitatively (if it was possible) with further assignment of an index to each sign (depending on the specific feature of the sign) and calculation of the sum of scores. The expression of the abstinence syndrome was presented as a sum of scores. The results were processed using nonparametric statistical analysis based on the Mann-Whitney test.

[3] = system: nitrites and nitrates (NOx-); test: Measurement of nitrates/nitrites (NOx-) in brain regions after the morphine abstinence experiment; conditions: 3 x 20 mg/kg intramuscularly
Procedure: as §1
To estimate the intensity of metabolism of nitric oxide in rats, quantitative determination of stable metabolites of nitrogen oxide-nitrites and nitrates (NOx-) was performed using a fluorometric method by fluorescence of naphthotriazole, a product of reaction of 2,3- diaminonaphthalene (DAN) and nitrite in an acidic medium (Misko T. R., Schilling R. J., Salvemini D. et al. A fluorometric assay for the measurement of nitrite in biological samples. Anal. Biochem., 1993, V. 214, p.11-16) with modifications (Lei B., Adachi N., Nagaro T., Arai T. Measurement of total nitric oxide metabolite (NO (x) (-)) levels in vivo. Brain. Res. Protoc., 1999, V. 4, p. 415-419).
The supernatants of brain deproteinized at 100° C. were placed in a nitrite recovery system containing 0.125 unit/ml of nitrate reductase, 25 μM NADPH and 25 μM FAD prepared in 20 mM Tris-HCl buffer pH 7.6 and incubated for 30 minutes at 37° C. For oxidation of NADPH a lactate dehydrogenase (LDH)/pyruvate system was used. Then 316.0 μM DAN solution in 0.62 M HCl was added and the mixture was incubated for 10 minutes in dark. For stabilization of fluorescence of the formed naphthotriazole, 280 mM NaOH was added. The fluorescence intensity was measured using spectrofluorometer Hitachi F-3000 at a wavelength of excitation 365 nm and emission 405 nm. To calculate the concentration of NOx- in the brain a standard solution of sodium nitrate was used. The concentration of NOx- was expressed in nmol/mg of protein.
as §2

[4] = Groups Nos. 3-14, compound without morphine, one value for all 12 compounds
[5] = Morphine + compound, one value for the three compounds

SMILES | Activity of NOS, hippocampus [1, 4] | Activity of NOS, hypothalamus [1, 4] | Activity of NOS, midbrain [1, 4] | Activity of NOS, striatum [1, 4] | Activity of NOS, hippocampus [1, 5] | Activity of NOS, hypothalamus [1, 5] | Activity of NOS, midbrain [1, 5] | Activity of NOS, striatum [1, 5] | Authentic differences (ξ-square criterion) in appearance of signs of abstinence: <<Wet dog>> shakes [2] | Authentic differences (ξ-square criterion) in appearance of signs of abstinence: Aggression [2] | Authentic differences (ξ-square criterion) in appearance of signs of abstinence: Convulsions [2] | Authentic differences (ξ-square criterion) in appearance of signs of abstinence: Diarrhea [2] | Authentic differences (ξ-square criterion) in appearance of signs of abstinence: Dyspnea [2] | Authentic differences (ξ-square criterion) in appearance of signs of abstinence: Forelimb jogging [2] | Authentic differences (ξ-square criterion) in appearance of signs of abstinence: Grit with teeth [2] | Authentic differences (ξ-square criterion) in appearance of signs of abstinence: Mastication [2] | Authentic differences (ξ-square criterion) in appearance of signs of abstinence: Piloerection [2] | Authentic differences (ξ-square criterion) in appearance of signs of abstinence: Ptosis [2] | Authentic differences (ξ-square criterion) in appearance of signs of abstinence: Rhinorrhea [2] | Authentic differences (ξ-square criterion) in appearance of signs of abstinence: Squeak when touched [2] | further results
Nc1cccc2c(=O)n([C@@H]3O[C@H](CO)[C@@H](O)[C@H]3O)[nH]c(=O)c12.[Na] [Compound 10, sodium salt of 5-amino-2-(β-D-ribofuranosile)benzo[d]-3H-pyridazine-1,4-dione] | 3.09 ± 0.16 nmol/min/mg of protein | 5.45 ± 0.24 nmol/min/mg of protein | 2.60 ± 0.29 nmol/min/mg of protein | 1.26 ± 0.08 nmol/min/mg of protein | 2.51 ± 0.19 nmol/min/mg of protein | 5.36 ± 0.33 nmol/min/mg of protein | 1.99 ± 0.29 nmol/min/mg of protein | 1.29 ± 0.09 nmol/min/mg of protein | 0.7562 | 0.8456 | 0.7546 | 0.0032 | 0.0834 | 0.8217 | 0.8652 | 0.1032 | 0.2567 | 0.0320 | 0.4032 | 0.1342 | Nitrites, brainstem [3, 4]: 6.31 ± 0.58 nmol/mg of protein; Nitrites, cerebellum [3, 4]: 6.66 ± 0.63 nmol/mg of protein; Nitrites, cerebral cortex [3, 4]: 4.31 ± 0.37 nmol/mg of protein; Nitrites, hippocampus [3, 4]: 6.47 ± 0.72 nmol/mg of protein; Nitrites, hypothalamus [3, 4]: 6.77 ± 0.83 nmol/mg of protein; Nitrites, midbrain [3, 4]: 6.65 ± 0.70 nmol/mg of protein; Nitrites, striatum [3, 4]: 6.11 ± 0.29 nmol/mg of protein; Nitrites, brainstem [3, 5]: 6.99 ± 0.82 nmol/mg of protein; Nitrites, cerebellum [3, 5]: 5.85 ± 0.47 nmol/mg of protein; Nitrites, cerebral cortex [3, 5]: 4.93 ± 0.39 nmol/mg of protein; Nitrites, hippocampus [3, 5]: 5.24 ± 0.49 nmol/mg of protein; Nitrites, hypothalamus [3, 5]: 6.91 ± 0.58 nmol/mg of protein; Nitrites, midbrain [3, 5]: 5.75 ± 0.39 nmol/mg of protein; Nitrites, striatum [3, 5]: 3.57 ± 0.42 nmol/mg of protein
O=c1[nH][nH]c(=O)c2nccnc12.[Li] [Compound 26, lithium salt of pyrazino[2,3-d]-6H-pyridazine-5,8-dione] | 3.09 ± 0.16 nmol/min/mg of protein | 5.45 ± 0.24 nmol/min/mg of protein | 2.60 ± 0.29 nmol/min/mg of protein | 1.26 ± 0.08 nmol/min/mg of protein | 2.33 ± 0.11 nmol/min/mg of protein | 5.47 ± 0.32 nmol/min/mg of protein | 2.03 ± 0.31 nmol/min/mg of protein | 1.21 ± 0.10 nmol/min/mg of protein | 0.7821 | 0.7921 | 0.3456 | 0.0067 | 0.0567 | 0.6745 | 0.2994 | 0.1975 | 0.2567 | 0.0105 | 0.2131 | 0.1968 | Nitrites, brainstem [3, 4]: 6.31 ± 0.58 nmol/mg of protein; Nitrites, cerebellum [3, 4]: 6.66 ± 0.63 nmol/mg of protein; Nitrites, cerebral cortex [3, 4]: 4.31 ± 0.37 nmol/mg of protein; Nitrites, hippocampus [3, 4]: 6.47 ± 0.72 nmol/mg of protein; Nitrites, hypothalamus [3, 4]: 6.77 ± 0.83 nmol/mg of protein; Nitrites, midbrain [3, 4]: 6.65 ± 0.70 nmol/mg of protein; Nitrites, striatum [3, 4]: 6.11 ± 0.29 nmol/mg of protein; Nitrites, brainstem [3, 5]: 7.07 ± 0.85 nmol/mg of protein; Nitrites, cerebellum [3, 5]: 5.76 ± 0.49 nmol/mg of protein; Nitrites, cerebral cortex [3, 5]: 4.62 ± 0.27 nmol/mg of protein; Nitrites, hippocampus [3, 5]: 5.27 ± 0.41 nmol/mg of protein; Nitrites, hypothalamus [3, 5]: 6.87 ± 0.75 nmol/mg of protein; Nitrites, midbrain [3, 5]: 5.99 ± 0.58 nmol/mg of protein; Nitrites, striatum [3, 5]: 3.57 ± 0.42 nmol/mg of protein
